In patent US5632983A, “Method for treating secondary immunodeficiency” (University of South Florida, priority 1994, dated 1997):
No end group written: not given here.

Key:
[1] = Thymus weight in hydrocortisone-treated aged mice; type: in vivo; details: NCM 50 U of IL-2 per mouse/day; Thymosin α1 5 or 20 microgram/mouse/day (pooled); i.p. 5 days, day 8
Method: (§1) Female BALB/c (Life Science, St. Petersburg, Fla.) aged retired breeder mice (8-9 months) whose thymuses had begun to involute were employed in in vivo tests. Mice were weight matched and randomly pooled in groups of five. Animals were fed standard laboratory diets with drinking water ad lib. All mice, with exception of a control group, were treated intraperitoneally (i.p.) with hydrocortisone (5 mg/mouse in 0.1 ml 0.9% sodium chloride) for two consecutive days to induce a chemical thymectomy and reduction of spleen weight.
(§2) Each treatment group had five (5) animals and each experiment was repeated 2-5 times. Treatment was initiated intraperitoneally (i.p.), on Day 3 and continued once per day for a total of five (5) days. Treatment groups were injected with one of the following in vivo treatments as indicated in the text:
(§3) On day 8, the mice were weighed, sacrificed by cervical dislocation, and their spleens and thymuses removed and weighed. The organs were minced, the residual erythrocytes were lysed using ammonium chloride (Mishell and Shiigi, "Selected Methods in Cellular Immunology", 1981), and the cells counted.
(§4) Animals, hydrocortisone treatment, and experimental injections were as described in the general methods. The NCM was injected at 50 U of IL-2 per mouse/day. The Thymosin α1 (T alpha-1 or Tα1) was injected at 5 or 20 microgram/mouse/day.

thymocytes = assay: Proliferative response (3H-thymidine) of thymocytes in vitro after in vivo treatment, hydrocortisone induced thymic involution in aged mice
Method: (§5) The model of hydrocortisone induced thymic involution in aged mice was used unless otherwise indicated (Hadden et al., 1992b).
as §1, §2, §3
(§6) The proliferative response of the cells to various substances was then determined. A sample of cells was prepared for cell culture at 37° C., 5% CO2 in RPMI 1640 medium with 5% fetal bovine serum, penicillin (100 U/ml), streptomycin (100 μg/ml) and 2-mercaptoethanol (2×10^-5 M). The cells were plated in 0.2 ml microwell plates in quadruplicate at a concentration of 1.5×10^6 /ml and incubated for 72 hours with one of the following as indicated in the text:
(§7) To measure DNA synthesis, the culture was terminated with an 18 hours pulse of tritiated thymidine (^3 H-Thymidine; NEN, Boston, Mass.; specific activity 6.7 Ci/mM), harvested with a multiple automatic sample harvester and processed for liquid scintillation counting. The results were expressed as arithmetic mean of cpm from four samples. In order to simplify the representation of data obtained with different animals, the results were pooled and calculated together and in some cases expressed as a ratio to control±SEM.
(§8) In a series of experiments, mice with involuted thymuses were treated in vivo with NCM, Thymosin α1, Thymosin fraction V, combinations of these factors, and saline or media controls. The spleens and thymuses were removed, the cells were tested for cell proliferation responses to stimulation in vitro with the interleukins (IL1, IL2, NCM) or with mitogens (PHA; ConA).

splenocytes = assay: Proliferative response (3H-thymidine) of splenocytes in vitro after in vivo treatment, hydrocortisone induced thymic involution in aged mice
Method: as §5, §1, §2, §3, §6, §7, §8

[2] = Spleen weight in hydrocortisone-treated aged mice; type: in vivo; details: NCM 50 U of IL-2 per mouse/day; Thymosin α1 5 or 20 microgram/mouse/day (pooled); i.p. 5 days, day 8
Method: as §1, §2, §3, §4

For “Thymosin α1 (SDAAVDTSSEITTKDLKEKKEVVEEAEN; not fully specified; ends and bridges not checked; UniProt P01252 2-29, looked up) [28 amino acid peptide initially extracted from bovine thymus and later synthesized]”, the “THYMUS WEIGHT (mg) Mean ± S.E.M.” value [1] was 25.75 ± 4.45 mg, the “dose of optimal effects on thymocyte responses to interleukins and mitogen” value (thymocytes; FIG. 1, dose response 0.2 to 20 μg/animal/day in vivo) was 5 μg/mouse and the “thymocyte responses in vitro to media, rIL-1, rIL-2 and NCM” value (thymocytes; FIG. 3, in vivo i.p. once per day for 5 days, Thymosin α1 5 μg/mouse, NCM 50 units IL-2 equivalence) was “increased many of the responses”. The “thymocyte responses to mitogens PHA and ConA” value (thymocytes; FIG. 5, in vivo treatments as in FIG. 3) was “significantly augmented both responses”, the “thymocyte responses to rIL-1, IL-2, NCM or ConA” value (thymocytes; FIGS. 7 and 9, ratio to saline treated control, Thymosin α1 5 μg/mouse/day, TF5 100 μg/mouse/day, NCM 50 units) was “augmented all of the responses” and the “dose of optimal effects on splenocyte responses to interleukins and mitogen” value (splenocytes; FIG. 2, dose response 0.2 to 20 μg/animal/day in vivo) was 5 μg/mouse. For the same substance, the “splenocyte responses in vitro to media, rIL-1, rIL-2 and NCM” value (splenocytes; FIG. 4, in vivo i.p. once per day for 5 days, Thymosin α1 5 μg/mouse, NCM 50 units IL-2 equivalence) was “increased many of the responses”, the “splenocyte responses to mitogens PHA and ConA” value (splenocytes; FIG. 6, in vivo treatments as in FIG. 3) was “significantly augmented both responses” and the “splenocyte responses to rIL-1, IL-2, NCM or ConA” value (splenocytes; FIGS. 8 and 10, ratio to saline treated control, Thymosin α1 5 μg/mouse, TF5 100 μg/mouse, NCM 50 units) was “augmented all of the responses”. For the same substance, the “SPLEEN WEIGHT (mg) Mean ± S.E.M.” value [2] was 127.66 ± 5.78 mg.
